The source of these data is patent publication US20260201008A1, “SECRETIN-DERIVED GLP1R SELECTIVE AGONISTS” (GUBRA A/S, priority 2023, published 2026).

Molecules are shown by their SMILES. Numbered stars: 1 amine (or outer) side, 2 acyl side, 3 side chain; on linkers, the order of the positions; unused ones are H or OH. Square brackets hold non-standard residues; d marks the D form. Side chains are listed from the residue outwards. Peptide text beside a SMILES is read from it. * marks the point of attachment. C20 diacid = O=C(O)CCCCCCCCCCCCCCCCCCC(=O)*; γGlu = O=C(O)[C@H](CCC(=O)[*:2])N[*:1]; AEEA = NCCOCCOCC(=O)O; Aib = CC(C)(N)C(=O)O

Series [1] in a line: Turbidity of crude library peptides (absorbance at 600 nm). Particulars: Physical stability of peptides. Type of series: physicochemical. In short, it runs like this:
(§1)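 Crude peptides at 267 μM in 50 mM sodium acetate pH 4.0 or 50 mM sodium phosphate pH 7.0, pre-incubated 1-2 h at room temperature, then 4 μM final ThT added. Turbidity read first as A600. ThT fluorescence (ex 450/em 480 nm) read every 10 min for 72 h at 40° C, with 5 min shaking before each read; fibril formation = average emission.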

The nature of series [2]: Fibril formation of crude library peptides (Thioflavin T). Type of series: physicochemical. Particulars: Physical stability of peptides. Also on record: key: average ThT fluorescence emission at 480 nm (ex 450 nm), raw units. The procedure, abridged:
as §1

The target in series [3] is GLP1R (Homo sapiens, UniProt P43220). Put plainly: hGLP1R potency, cAMP accumulation in CHO-K1 cells stably overexpressing hGLP1R. The note with it: for Selectivity: SCTR EC50/GLP1R EC50 ratio; for EC50: cAMP accumulation, CHO-K1 cells overexpressing hGLP1R, read-out: pEC50 hGLPR1 (converted). Also on record: host or cells: CHO-K1. In kind it is cell-based. The procedure, abridged: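 Thawed cells go straight into buffer containing 0.5 mM IBMX and 0.05% casein, get graded compound doses for 30 min at room temperature, and are then assayed for accumulated cAMP by time-resolved FRET. Human GLP-1(7-36) serves as positive control; EC50 is derived by nonlinear regression.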
A general note: Changes in cAMP serve as a functional read-out for many G protein-coupled receptors.

The target of series [4] is SCTR (Homo sapiens, UniProt P47872). Put plainly: hSCTR potency, cAMP accumulation in CHO-K1 cells stably overexpressing hSCTR. In kind it is cell-based. Particulars: cAMP accumulation, CHO-K1 cells overexpressing hSCTR; read-out: pEC50 hSCTR (converted). Also on record: alternatively Euroscreen ES-712-AF; FAST-0161L; host or cells: CHO-K1. In short, it runs like this: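 Read-out is TR-FRET cAMP detection, recorded one hour after reagent addition, in CHO-K1 cells stably overexpressing hSCTR. Cells in DPBS containing 0.05% casein and 0.5 mM IBMX are exposed to graded peptide doses for 30 min at room temperature, with human secretin as reference agonist.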
SCTR, sequence (P47872 23-440): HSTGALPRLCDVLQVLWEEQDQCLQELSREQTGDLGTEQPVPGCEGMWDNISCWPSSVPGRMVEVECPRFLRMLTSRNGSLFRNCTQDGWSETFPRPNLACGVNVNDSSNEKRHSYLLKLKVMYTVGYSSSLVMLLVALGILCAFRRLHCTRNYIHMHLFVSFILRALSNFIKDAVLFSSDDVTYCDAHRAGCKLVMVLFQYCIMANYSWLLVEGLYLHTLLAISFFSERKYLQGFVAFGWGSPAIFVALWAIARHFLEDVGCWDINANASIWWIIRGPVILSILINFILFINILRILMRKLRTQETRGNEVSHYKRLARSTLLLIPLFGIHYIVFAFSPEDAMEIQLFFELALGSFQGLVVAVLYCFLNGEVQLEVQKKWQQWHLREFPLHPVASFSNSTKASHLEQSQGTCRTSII

GLP1R, sequence (P43220 24-463): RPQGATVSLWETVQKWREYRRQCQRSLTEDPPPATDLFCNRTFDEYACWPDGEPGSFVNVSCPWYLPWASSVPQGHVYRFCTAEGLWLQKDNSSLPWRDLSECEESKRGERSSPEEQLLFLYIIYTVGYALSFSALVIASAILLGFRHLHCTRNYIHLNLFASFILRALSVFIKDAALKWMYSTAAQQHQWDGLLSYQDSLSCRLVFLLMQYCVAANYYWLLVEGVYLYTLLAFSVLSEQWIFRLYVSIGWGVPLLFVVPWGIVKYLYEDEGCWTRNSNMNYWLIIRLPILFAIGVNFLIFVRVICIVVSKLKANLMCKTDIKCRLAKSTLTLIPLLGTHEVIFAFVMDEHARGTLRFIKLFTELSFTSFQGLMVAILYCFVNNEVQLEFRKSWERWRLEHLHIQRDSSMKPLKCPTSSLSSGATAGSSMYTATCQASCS

Take `CC(C)C[C@H](NC(=O)[C@H](Cc1ccccc1)NC(=O)[C@H](CCCNC(=N)N)NC(=O)[C@H](CCC(N)=O)NC(=O)[C@H](C)NC(=O)[C@H](C)NC(=O)[C@H](C)NC(=O)C(C)(C)NC(=O)[C@H](CCC(=O)O)NC(=O)[C@H](CCCCNC(=O)COCCOCCNC(=O)COCCOCCNC(=O)CC[C@H](NC(=O)CCCCCCCCCCCCCCCCCCC(=O)O)C(=O)O)NC(=O)[C@H](CC(C)C)NC(=O)[C@@H](NC(=O)[C@H](CO)NC(=O)[C@@H](NC(=O)[C@H](CC(=O)O)NC(=O)[C@H](CO)NC(=O)[C@@H](NC(=O)[C@H](Cc1ccccc1)NC(=O)[C@@H](NC(=O)CNC(=O)[C@H](CCC(=O)O)NC(=O)C(C)(C)NC(=O)[C@@H](N)Cc1c[nH]cn1)[C@@H](C)O)[C@@H](C)O)C(C)C)C(C)C)C(=O)N[C@@H](CCC(=O)O)C(=O)N[C@@H](Cc1c[nH]cn1)C(=O)N[C@@H](CC(C)C)C(=O)N[C@H](C(N)=O)C(C)C` [compound 15] (H-H[Aib]EGTFTSDVSVLK([AEEA-AEEA-γGlu-C20 diacid])E[Aib]AAAQRFLEHLV-NH2): in series [1], the “Turbidity (pH 7)” value is recorded as 0.09. The same molecule registered a Fibril formation in series [2] of 12385. Further, in series [3], the Selectivity was found to be 3961. In addition, the EC50 in series [3] is 0.0794 nM; in series [4] it was 316 nM.

On to `CC(C)C[C@H](NC(=O)[C@H](Cc1ccccc1)NC(=O)[C@H](CCCNC(=N)N)NC(=O)[C@H](CCC(N)=O)NC(=O)[C@H](CCC(=O)O)NC(=O)[C@H](C)NC(=O)[C@H](C)NC(=O)C(C)(C)NC(=O)[C@H](CCC(=O)O)NC(=O)[C@H](CCCCNC(=O)COCCOCCNC(=O)COCCOCCNC(=O)CC[C@H](NC(=O)CCCCCCCCCCCCCCCCCCC(=O)O)C(=O)O)NC(=O)[C@H](CC(C)C)NC(=O)[C@@H](NC(=O)[C@H](CO)NC(=O)[C@@H](NC(=O)[C@H](CC(=O)O)NC(=O)[C@H](CO)NC(=O)[C@@H](NC(=O)[C@H](Cc1ccccc1)NC(=O)[C@@H](NC(=O)CNC(=O)[C@H](CCC(=O)O)NC(=O)C(C)(C)NC(=O)[C@@H](N)Cc1c[nH]cn1)[C@@H](C)O)[C@@H](C)O)C(C)C)[C@@H](C)O)C(=O)N[C@@H](CCC(=O)O)C(=O)N[C@@H](Cc1c[nH]cn1)C(=O)N[C@@H](CC(C)C)C(=O)N[C@H](C(N)=O)C(C)C` [compound 16] (H-H[Aib]EGTFTSDVSTLK([AEEA-AEEA-γGlu-C20 diacid])E[Aib]AAEQRFLEHLV-NH2), for which the “Turbidity (pH 7)” value in series [1] was found to be 0.08. In series [2], the Fibril formation stood at 11719. In series [3], the Selectivity is reported as 2876 and the EC50 is 0.0398 nM. In series [4], the EC50 was 126 nM.

`CC(C)C[C@H](NC(=O)[C@H](Cc1ccccc1)NC(=O)[C@H](CCCNC(=N)N)NC(=O)[C@H](CCC(N)=O)NC(=O)[C@H](CO)NC(=O)[C@H](C)NC(=O)[C@H](C)NC(=O)[C@H](CCC(=O)O)NC(=O)[C@H](CCC(=O)O)NC(=O)[C@H](CCCCNC(=O)COCCOCCNC(=O)COCCOCCNC(=O)CC[C@H](NC(=O)CCCCCCCCCCCCCCCCCCC(=O)O)C(=O)O)NC(=O)[C@H](CC(C)C)NC(=O)[C@H](CCCNC(=N)N)NC(=O)[C@H](CO)NC(=O)[C@@H](NC(=O)[C@H](CC(=O)O)NC(=O)[C@H](CO)NC(=O)[C@@H](NC(=O)[C@H](Cc1ccccc1)NC(=O)[C@@H](NC(=O)CNC(=O)[C@H](CCC(=O)O)NC(=O)C(C)(C)NC(=O)[C@@H](N)Cc1c[nH]cn1)[C@@H](C)O)[C@@H](C)O)C(C)C)C(=O)N[C@@H](CCC(=O)O)C(=O)N[C@@H](Cc1c[nH]cn1)C(=O)N[C@@H](CC(C)C)C(=O)N[C@H](C(N)=O)C(C)C` [compound 17] (H-H[Aib]EGTFTSDVSRLK([AEEA-AEEA-γGlu-C20 diacid])EEAASQRFLEHLV-NH2): the “Turbidity (pH 7)” value in series [1] came to 0.08. The same molecule yielded a Fibril formation in series [2] of 10330. The Selectivity in series [3] was 10637. The EC50 is 0.0251 nM in series [3] and 251 nM in series [4].

`CC(C)C[C@H](NC(=O)[C@H](Cc1ccccc1)NC(=O)[C@H](CCCNC(=N)N)NC(=O)[C@H](CCC(N)=O)NC(=O)[C@H](CCC(=O)O)NC(=O)[C@H](C)NC(=O)[C@H](C)NC(=O)C(C)(C)NC(=O)[C@H](CCC(=O)O)NC(=O)[C@H](CCCCNC(=O)COCCOCCNC(=O)COCCOCCNC(=O)CC[C@H](NC(=O)CCCCCCCCCCCCCCCCCCC(=O)O)C(=O)O)NC(=O)[C@H](CC(C)C)NC(=O)[C@H](CCC(=O)O)NC(=O)[C@H](CO)NC(=O)[C@@H](NC(=O)[C@H](CC(=O)O)NC(=O)[C@H](CO)NC(=O)[C@@H](NC(=O)[C@H](Cc1ccccc1)NC(=O)[C@@H](NC(=O)CNC(=O)[C@H](CCC(=O)O)NC(=O)C(C)(C)NC(=O)[C@@H](N)Cc1c[nH]cn1)[C@@H](C)O)[C@@H](C)O)C(C)C)C(=O)N[C@@H](CCC(=O)O)C(=O)N[C@@H](Cc1c[nH]cn1)C(=O)N[C@@H](CC(C)C)C(=O)N[C@H](C(N)=O)C(C)C` [compound 18] (H-H[Aib]EGTFTSDVSELK([AEEA-AEEA-γGlu-C20 diacid])E[Aib]AAEQRFLEHLV-NH2): the “Turbidity (pH 7)” value in series [1] is 0.09. In series [2], this molecule gave a Fibril formation of 12140. For the same molecule, in series [3], the Selectivity is given as 16263 and the EC50 is 0.0316 nM. Further, the EC50 in series [4] is 501 nM.

For the molecule `CC(C)C[C@H](NC(=O)[C@H](CCC(=O)O)NC(=O)[C@H](CCCCNC(=O)COCCOCCNC(=O)COCCOCCNC(=O)CC[C@H](NC(=O)CCCCCCCCCCCCCCCCCCC(=O)O)C(=O)O)NC(=O)[C@H](CC(C)C)NC(=O)[C@H](CCCNC(=N)N)NC(=O)[C@H](CO)NC(=O)[C@@H](NC(=O)[C@H](CC(=O)O)NC(=O)[C@H](CO)NC(=O)[C@@H](NC(=O)[C@H](Cc1ccccc1)NC(=O)[C@@H](NC(=O)CNC(=O)[C@H](CCC(=O)O)NC(=O)C(C)(C)NC(=O)[C@@H](N)Cc1c[nH]cn1)[C@@H](C)O)[C@@H](C)O)C(C)C)C(=O)N[C@@H](C)C(=O)N[C@@H](C)C(=O)N[C@@H](CO)C(=O)N[C@@H](CCC(N)=O)C(=O)N[C@@H](CCCNC(=N)N)C(=O)N[C@@H](Cc1ccccc1)C(=O)N[C@@H](CC(C)C)C(=O)N[C@@H](CCC(=O)O)C(=O)N[C@@H](Cc1c[nH]cn1)C(=O)N[C@@H](CC(C)C)C(=O)N[C@H](C(N)=O)C(C)C` [compound 19] (H-H[Aib]EGTFTSDVSRLK([AEEA-AEEA-γGlu-C20 diacid])ELAASQRFLEHLV-NH2), the “Turbidity (pH 7)” value in series [1] turned out to be 0.10. Besides, the Fibril formation in series [2] worked out at 170210. In addition, the Selectivity in series [3] is 7342. Besides, the figures for the EC50 in series [3] and in series [4] were 0.0794 nM and 631 nM, respectively.

On to `CC(C)C[C@H](NC(=O)[C@H](Cc1ccccc1)NC(=O)[C@H](CCCNC(=N)N)NC(=O)[C@H](CCC(N)=O)NC(=O)[C@H](CO)NC(=O)[C@H](C)NC(=O)[C@H](C)NC(=O)[C@@H](NC(=O)[C@H](CCC(=O)O)NC(=O)[C@H](CCCCNC(=O)COCCOCCNC(=O)COCCOCCNC(=O)CC[C@H](NC(=O)CCCCCCCCCCCCCCCCCCC(=O)O)C(=O)O)NC(=O)[C@H](CC(C)C)NC(=O)[C@@H](NC(=O)[C@H](CO)NC(=O)[C@@H](NC(=O)[C@H](CC(=O)O)NC(=O)[C@H](CO)NC(=O)[C@@H](NC(=O)[C@H](Cc1ccccc1)NC(=O)[C@@H](NC(=O)CNC(=O)[C@H](CCC(=O)O)NC(=O)C(C)(C)NC(=O)[C@@H](N)Cc1c[nH]cn1)[C@@H](C)O)[C@@H](C)O)C(C)C)[C@@H](C)O)[C@@H](C)O)C(=O)N[C@@H](CCC(=O)O)C(=O)N[C@@H](Cc1c[nH]cn1)C(=O)N[C@@H](CC(C)C)C(=O)N[C@H](C(N)=O)C(C)C` [compound 20] (H-H[Aib]EGTFTSDVSTLK([AEEA-AEEA-γGlu-C20 diacid])ETAASQRFLEHLV-NH2), for which the “Turbidity (pH 7)” value in series [1] was found to be 0.10. In addition, the Fibril formation in series [2] was 33108. Besides, the Selectivity in series [3] came out at 22019. The EC50 is 0.02 nM in series [3] and 398 nM in series [4].
